Data on ten molecules can be found in ChEMBL document CHEMBL3112568, “Synthesis, antifungal activities and molecular docking studies of novel 2-(2,4-difluorophenyl)-2-hydroxy-3-(1H-1,2,4-triazol-1-yl)propyl dithiocarbamates” (2014).

Broadly, the MIC80 is an inhibitory concentration at the 80% level, which refers to growth in some studies and to a panel of isolates in others. A lower MIC80 goes with higher susceptibility.

Common to all, as to format: functional
The subject of experiment [1] is Candida albicans. In words: Antifungal activity against Candida albicans SC5314 after 24 hrs by micro-broth dilution method. The settings on record: SC5314, 24 h. For orientation: Dilution methods test growth across graded concentrations, often in twofold steps.
For experiment [2], the system named is Nakaseomyces glabratus. Description: Antifungal activity against Candida glabrata by micro-broth dilution method.
For experiment [3], the system named is Candida albicans. In words: Antifungal activity against Candida albicans Y0109 after 24 hrs by micro-broth dilution method. The settings on record: Y0109, 24 h.
Experiment [4] has as its system Trichophyton rubrum. Description: Antifungal activity against Trichophyton rubrum by micro-broth dilution method.
The subject of experiment [5] is Aspergillus fumigatus. Description: Antifungal activity against Aspergillus fumigatus by micro-broth dilution method.
Experiment [6] relates to Cryptococcus neoformans. Description: Antifungal activity against Cryptococcus neoformans after 72 hrs by micro-broth dilution method.
Experiment [7] concerns Candida parapsilosis. Description: Antifungal activity against Candida parapsilosis by micro-broth dilution method. The settings on record: Lodderomyces parapsilosis.
The subject of experiment [8] is Nannizzia gypsea. Description: Antifungal activity against Microsporum gypseum by micro-broth dilution method.

Values after ≈ are worked out from the molar mass of the structure shown. Bounds are passed on as bounds.

Turning to `OC(CSC(=S)N1CCN(c2cccc(F)c2)CC1)(Cn1cncn1)c1ccc(F)cc1F` (racemic), the MIC80 is at most 0.125 µg/mL in experiment [1]; 0.25 µg/mL (≈ 0.507 µM) in experiment [2]; at most 0.125 µg/mL in experiment [3]; 0.5 µg/mL (≈ 1.01 µM) in experiment [4]; 8 µg/mL (≈ 16.2 µM) in experiment [5]; at most 0.125 µg/mL in experiment [6]. For the same molecule, the MIC80 in experiment [7] was determined as 0.5 µg/mL (≈ 1.01 µM); in experiment [8] it was 4 µg/mL (≈ 8.1 µM).
`OC(CSC(=S)N1CCN(c2ccc(F)cc2)CC1)(Cn1cncn1)c1ccc(F)cc1F` (racemic): the MIC80 was 0.25 µg/mL (≈ 0.507 µM) in experiment [1]; 0.25 µg/mL (≈ 0.507 µM) in experiment [2]; at most 0.125 µg/mL in experiment [3]; 1 µg/mL (≈ 2.03 µM) in experiment [4]; 16 µg/mL (≈ 32.4 µM) in experiment [5]; at most 0.125 µg/mL in experiment [6]. In addition, the MIC80 in experiment [7] worked out at 0.25 µg/mL (≈ 0.507 µM); in experiment [8], 2 µg/mL (≈ 4.05 µM).
Turning to `OC(CSC(=S)N1CCN(c2ccccc2Cl)CC1)(Cn1cncn1)c1ccc(F)cc1F` (racemic), the MIC80 in experiment [1] is at most 0.125 µg/mL; in experiment [2] it was 0.5 µg/mL (≈ 0.98 µM); in experiment [3], at most 0.125 µg/mL; in experiment [4], 1 µg/mL (≈ 1.96 µM); in experiment [5], 8 µg/mL (≈ 15.7 µM); in experiment [6] it was at most 0.125 µg/mL. The MIC80 in experiment [7] worked out at 0.5 µg/mL (≈ 0.98 µM); in experiment [8], 2 µg/mL (≈ 3.92 µM).
Take `OC(CSC(=S)N1CCN(c2ccc(Cl)cc2)CC1)(Cn1cncn1)c1ccc(F)cc1F` (racemic): the MIC80 in experiment [1] was at most 0.125 µg/mL; in experiment [2] it was 0.25 µg/mL (≈ 0.49 µM); in experiment [3], at most 0.125 µg/mL; in experiment [4] it was 1 µg/mL (≈ 1.96 µM); in experiment [5], 16 µg/mL (≈ 31.4 µM); in experiment [6], at most 0.125 µg/mL. In addition, the values for the MIC80 in experiment [7] and in experiment [8] were 0.5 µg/mL (≈ 0.98 µM) and 4 µg/mL (≈ 7.84 µM), respectively.
As for `Cc1ccccc1N1CCN(C(=S)SCC(O)(Cn2cncn2)c2ccc(F)cc2F)CC1` (racemic), the MIC80 is 0.25 µg/mL (≈ 0.511 µM) in experiment [1]; 0.5 µg/mL (≈ 1.02 µM) in experiment [2]; at most 0.125 µg/mL in experiment [3]; 2 µg/mL (≈ 4.08 µM) in experiment [4]; above 64 µg/mL in experiment [5]; 0.5 µg/mL (≈ 1.02 µM) in experiment [6]. The MIC80 in experiment [7] turned out to be 1 µg/mL (≈ 2.04 µM); in experiment [8], 16 µg/mL (≈ 32.7 µM).
`Cc1cccc(N2CCN(C(=S)SCC(O)(Cn3cncn3)c3ccc(F)cc3F)CC2)c1C` (racemic): the MIC80 in experiment [1] is 0.5 µg/mL (≈ 0.993 µM); in experiment [2], 0.5 µg/mL (≈ 0.993 µM); in experiment [3], 0.5 µg/mL (≈ 0.993 µM); in experiment [4], 1 µg/mL (≈ 1.99 µM); in experiment [5], above 64 µg/mL; in experiment [6] it was 0.5 µg/mL (≈ 0.993 µM). Also, the MIC80 is 1 µg/mL (≈ 1.99 µM) in experiment [7] and above 64 µg/mL in experiment [8].
Consider `OC(CSC(=S)N1CCN(c2cccc(Cl)c2Cl)CC1)(Cn1cncn1)c1ccc(F)cc1F` (racemic), for which the MIC80 in experiment [1] is 0.5 µg/mL (≈ 0.918 µM); in experiment [2], 0.5 µg/mL (≈ 0.918 µM); in experiment [3] it was at most 0.125 µg/mL; in experiment [4] it was 0.5 µg/mL (≈ 0.918 µM); in experiment [5], above 64 µg/mL; in experiment [6], 0.5 µg/mL (≈ 0.918 µM). Moreover, the figures for the MIC80 in experiment [7] and in experiment [8] were 1 µg/mL (≈ 1.84 µM) and 16 µg/mL (≈ 29.4 µM), respectively.
As for `COc1cccc(N2CCN(C(=S)SCC(O)(Cn3cncn3)c3ccc(F)cc3F)CC2)c1` (racemic), the MIC80 was at most 0.125 µg/mL in experiment [1]; 0.25 µg/mL (≈ 0.494 µM) in experiment [2]; at most 0.125 µg/mL in experiment [3]; 1 µg/mL (≈ 1.98 µM) in experiment [4]; 16 µg/mL (≈ 31.6 µM) in experiment [5]; 0.25 µg/mL (≈ 0.494 µM) in experiment [6]. The MIC80 stood at 0.5 µg/mL (≈ 0.989 µM) in experiment [7] and 4 µg/mL (≈ 7.91 µM) in experiment [8].
Turning to `COc1ccc(N2CCN(C(=S)SCC(O)(Cn3cncn3)c3ccc(F)cc3F)CC2)cc1` (racemic), the MIC80 was at most 0.125 µg/mL in experiment [1]; at most 0.125 µg/mL in experiment [2]; at most 0.125 µg/mL in experiment [3]; 1 µg/mL (≈ 1.98 µM) in experiment [4]; 8 µg/mL (≈ 15.8 µM) in experiment [5]; 0.25 µg/mL (≈ 0.494 µM) in experiment [6]. The MIC80 in experiment [7] was 0.25 µg/mL (≈ 0.494 µM); in experiment [8], 2 µg/mL (≈ 3.96 µM).
Turning to `OC(CSC(=S)N1CCN(c2cccc(C(F)(F)F)c2)CC1)(Cn1cncn1)c1ccc(F)cc1F` (racemic), the MIC80 is at most 0.125 µg/mL in experiment [1]; 0.25 µg/mL (≈ 0.46 µM) in experiment [2]; at most 0.125 µg/mL in experiment [3]; 1 µg/mL (≈ 1.84 µM) in experiment [4]; 8 µg/mL (≈ 14.7 µM) in experiment [5]; 0.25 µg/mL (≈ 0.46 µM) in experiment [6]. Also, the MIC80 in experiment [7] was 0.5 µg/mL (≈ 0.92 µM); in experiment [8], 2 µg/mL (≈ 3.68 µM).
